Reference: patent publication US9789116B2, “Compositions and methods of modulating short-chain dehydrogenase activity” (CASE WESTERN RESERVE UNIVERSITY, priority 2013, dated 2017)
Entries after “also recorded” stand apart in the source; their conditions may differ.

Tests used:
[1] = tested on: mice irradiated with 11Gy; experiment: Survival of mice following bone marrow transplant (Example 11); assay type: in vivo, mouse
Description: A matched control cohort received injections with vehicle only. On day one mice received an infusion of donor marrow at doses of 100,000 cells; 200,000 cells; or 500,000 cells. […] Among mice receiving 200,000 donor cells, all control mice were dead by day 12.

[2] = Hepatocyte stability; assay type: in vitro ADME; details: hepatocytes in culture; printed 'Stable > couple hrs' over two lines
Method: Time to inhibition refers to the time needed to inhibit the generation of NADH by 15-PGDH from the moment with drug is added into the reaction mix. Delta Tm refers to the shift in melting temperature of recombinant 15-PGDH in the presence of drug (with cofactor NADH also present). Concentration of Full Cell Line Reporter Induction refers to the concentration of drug that needs to be added to reporter cell line to achieve maximal induction of the 15-PGDH-luciferase gene fusion reporter cassette, as measured by luciferase assays. Hepatocyte stability refers to the half-life of compound in the presence of hepatocytes in culture. Toxicity refers to the concentration of compound needed to decrease cell numbers in a cell culture assay.

[3] = tested on: lethally irradiated CD45.1 mice; experiment: Competitive bone marrow transplant, CD45.2 chimerism; assay type: in vivo, mouse
Method: On day 3 mice were sacrificed, marrow flushed and mixed at a 1:1 ratio with vehicle treated CD45.1 marrow. 2 million whole BM cells were injected into the tail vein of lethally irradiated CD45.1 mice and percent chimerism measured via flow cytometry at weeks 8, 12, 16.

[4] = tested on: C57BL/6J female mice; experiment: Survival after whole body irradiation; assay type: in vivo, mouse; details: for Number of mice surviving: cohort of 3
[5] = tested on: 15-PGDH-luciferase fusion reporter in V9m, LS174T and V503 cells; experiment: 15-PGDH-luciferase fusion gene reporter induction in colon cancer cell lines; assay type: cell-based
[6] = tested on: NSG mice; experiment: Homing of human umbilical cord blood buffy coat cells in NSG mice; assay type: in vivo, mouse
Method: FIG. 93 illustrates a schema of an experiment in which immune deficient NSG mice are lethally irradiated (IR) and 12 hours later receive a transplant with CFSE dye labeled buffy coat cells from human umbilical cord blood (UCB), and number of transplanted cells that home and survive in the bone marrow of the recipient mice are then determined by FACS at 16 hours post-transplant. In different arms of the experiment mice are treated with vehicle or with SW033291. Drugs are administered following radiation, following the transplant, and again at 8 hours after the transplant.

[7] = tested on: C57BL/6J mice; experiment: Bone marrow of C57BL/6J mice treated in vivo; set-up: species or system mouse; details: IP 5 mg/kg or 20 mg/kg
Description: Experimental conditions are noted on the figure.

[8] = tested on: lethally irradiated mice; experiment: Homing of CFSE dye labeled bone marrow cells in lethally irradiated mice; assay type: in vivo, mouse; details: 10 mg/kg IP
Method: Drugs are administered following radiation, following the transplant, and again at 8 hours after the transplant.

[9] = tested on: lethally irradiated mice; experiment: Blood and bone marrow recovery after transplant with 500,000 donor marrow cells; assay type: in vivo, mouse
[10] = tested on: 15-PGDH mRNA; experiment: 15-PGDH mRNA levels in colon cancer cell lines by real-time PCR; assay type: cell-based
Description: In these studies parental cell lines (not containing the 15-PGDH-luciferase reporter) are employed.

[11] = tested on: A549 cells; experiment: Cellular toxicity on A549 cells by CellTiter-Glo; assay type: cell-based; details: 24 hours, concentrations of up to 10 μM
Method: FIGS. 38(A-C) show assays of cellular toxicity on A549 cells at 24 hours of 15-PGDH inhibitors as assayed by CellTiter-Glo measurement.

[12] = tested on: FVB male mice; experiment: Dextran sodium sulfate (DSS) induced colitis; assay type: in vivo, mouse

In the case of `CCCC[S+]([O-])c1sc2nc(-c3cccs3)cc(-c3ccccc3)c2c1N` (stereo not shown) [SW033291, 2-(butylsulfinyl)-4-phenyl-6-(thiophen-2-yl)thieno[2,3-b]pyridin-3-amine], the median survival ([1]; 100,000 donor cells, 5 mg/kg twice daily) is reported as “approximate doubling of median survival”, the survival ([1]; 200,000 donor cells, 30 days of observation) is reported as “survived at 30 days of observation” and the survival ([1]; 500,000 donor cells, day 30) is reported as “all survived”. The Hepatocyte stability [2] was “couple hrs”, the “percent blood chimerism of CD45.2 marked cells” value ([3]; donor 5 mg/kg IP daily for 3 doses, weeks 12 and 16) was “significantly increased” and the “contribution to B and T cell populations” value ([3]; week 16) was “significant increase in contribution to B and T cell populations”. For the same molecule, the “Number of mice surviving” value ([4]; 7 Gy, 5 mg/kg IP daily for 7 doses, Day 5) was 3, the “Number of mice surviving” value ([4]; 7 Gy, 5 mg/kg IP daily for 7 doses, Day 6) was 3 and the “Number of mice surviving” value ([4]; 7 Gy, 5 mg/kg IP daily for 7 doses, Day 7) was 3. The “Number of mice surviving” value ([4]; 7 Gy, 5 mg/kg IP daily for 7 doses, Day 8) was 3, the “Number of mice surviving” value ([4]; 7 Gy, 5 mg/kg IP daily for 7 doses, Day 9) was 3 and the “Number of mice surviving” value ([4]; 7 Gy, 5 mg/kg IP daily for 7 doses, Day 10) was 3. The “Number of mice surviving” value ([4]; 7 Gy, 5 mg/kg IP daily for 7 doses, Day 11) was 3, the “Number of mice surviving” value ([4]; 7 Gy, 5 mg/kg IP daily for 7 doses, Day 12) was 3 and the “Number of mice surviving” value ([4]; 7 Gy, 5 mg/kg IP daily for 7 doses, Day 13) was 3. The “Number of mice surviving” value ([4]; 7 Gy, 5 mg/kg IP daily for 7 doses, Day 14) was 3, the “Number of mice surviving” value ([4]; 7 Gy, 5 mg/kg IP daily for 7 doses, Day 15) was 3 and the Appearance of mice ([4]; 7 Gy, Day 25, printed 'Looks Healthy' over two lines) was “Healthy”. For the same molecule, the “Number of mice surviving” value ([4]; 9 Gy, 5 mg/kg IP daily for 7 doses, Day 5) was 3, the “Number of mice surviving” value ([4]; 9 Gy, 5 mg/kg IP daily for 7 doses, Day 6) was 3 and the “Number of mice surviving” value ([4]; 9 Gy, 5 mg/kg IP daily for 7 doses, Day 7) was 3. For the same molecule, the “Number of mice surviving” value ([4]; 9 Gy, 5 mg/kg IP daily for 7 doses, Day 8) was 3, the “Number of mice surviving” value ([4]; 9 Gy, 5 mg/kg IP daily for 7 doses, Day 9) was 3 and the “Number of mice surviving” value ([4]; 9 Gy, 5 mg/kg IP daily for 7 doses, Day 10) was 3. The “Number of mice surviving” value ([4]; 9 Gy, 5 mg/kg IP daily for 7 doses, Day 11) was 3, the “Number of mice surviving” value ([4]; 9 Gy, 5 mg/kg IP daily for 7 doses, Day 12) was 2 and the “Number of mice surviving” value ([4]; 9 Gy, 5 mg/kg IP daily for 7 doses, Day 13) was 2. For the same molecule, the “Number of mice surviving” value ([4]; 9 Gy, 5 mg/kg IP daily for 7 doses, Day 14) was 1, the “Number of mice surviving” value ([4]; 9 Gy, 5 mg/kg IP daily for 7 doses, Day 15) was 0 and the “longer survival than vehicle control” value ([4]; 11Gy, 5 mg/kg IP daily for 7 doses) was 48 h. The “Number of mice surviving” value ([4]; 11 Gy, 5 mg/kg IP daily for 7 doses (Table 6), Day 5) was 3, the “Number of mice surviving” value ([4]; 11 Gy, 5 mg/kg IP daily for 7 doses (Table 6), Day 6) was 3 and the “Number of mice surviving” value ([4]; 11 Gy, 5 mg/kg IP daily for 7 doses (Table 6), Day 7) was 3. The “Number of mice surviving” value ([4]; 11 Gy, 5 mg/kg IP daily for 7 doses (Table 6), Day 8) was 3, the “Number of mice surviving” value ([4]; 11 Gy, 5 mg/kg IP daily for 7 doses (Table 6), Day 9) was 2 and the “Number of mice surviving” value ([4]; 11 Gy, 5 mg/kg IP daily for 7 doses (Table 6), Day 10) was 0. For the same molecule, the “Number of mice surviving” value ([4]; 11 Gy, 1 dose/daily for 7 days (Table 7), Day 5) was 3, the “Number of mice surviving” value ([4]; 11 Gy, 1 dose/daily for 7 days (Table 7), Day 6) was 3 and the “Number of mice surviving” value ([4]; 11 Gy, 1 dose/daily for 7 days (Table 7), Day 7) was 3. For the same molecule, the “Number of mice surviving” value ([4]; 11 Gy, 1 dose/daily for 7 days (Table 7), Day 8) was 2, the “Number of mice surviving” value ([4]; 11 Gy, 1 dose/daily for 7 days (Table 7), Day 9) was 1 and the “Number of mice surviving” value ([4]; 11 Gy, 1 dose/daily for 7 days (Table 7), Day 10) was 0. The “Number of mice surviving” value ([4]; 11 Gy, 1 dose/daily, continuous every day, Day 5) was 3, the “Number of mice surviving” value ([4]; 11 Gy, 1 dose/daily, continuous every day, Day 6) was 3 and the “Number of mice surviving” value ([4]; 11 Gy, 1 dose/daily, continuous every day, Day 7) was 3. For the same molecule, the “Number of mice surviving” value ([4]; 11 Gy, 1 dose/daily, continuous every day, Day 8) was 3, the “Number of mice surviving” value ([4]; 11 Gy, 1 dose/daily, continuous every day, Day 9) was 2 and the “Number of mice surviving” value ([4]; 11 Gy, 1 dose/daily, continuous every day, Day 10) was 0. The “Number of mice surviving” value ([4]; 11 Gy, 7 days, 2 dose daily, Day 5) was 3, the “Number of mice surviving” value ([4]; 11 Gy, 7 days, 2 dose daily, Day 6) was 3 and the “Number of mice surviving” value ([4]; 11 Gy, 7 days, 2 dose daily, Day 7) was 3. The “Number of mice surviving” value ([4]; 11 Gy, 7 days, 2 dose daily, Day 8) was 3, the “Number of mice surviving” value ([4]; 11 Gy, 7 days, 2 dose daily, Day 9) was 2 and the “Number of mice surviving” value ([4]; 11 Gy, 7 days, 2 dose daily, Day 10) was 0. The “longer survival than vehicle control, on average” value ([4]; 11Gy, any of three 5 mg/kg dosing schedules) was 1 to 2 days, the “exposure needed for maximal reporter induction” value ([5]; 24 hours, three cell line backgrounds) was 80 to 160 nM and the “luciferase activity of 15-PGDH luciferase fusion cells” value ([5]; V9m, LS174T, V503, various concentrations) was “increase luciferase activity”. The “increase in numbers of homed human cells in recipient bone marrow” value [6] was about 2 fold, the “percent of Sca1+/c-Kit+ cells in lineage negative (SKL) cells” value [7] was “unchanged” and the “increase in numbers of homed cells in recipient bone marrow” value ([8]; FIG. 88) was 3 fold. For the same molecule, the “increase in numbers of homed cells in recipient bone marrow” value ([8]; FIG. 90) was 2 fold, the “increase in numbers of homed donor cells in recipient bone marrow” value ([8]; FIG. 140) was “approximately 2.5 fold” and the total platelet count ([9]; day 5 after transplant) was “significantly higher total platelet count”. The total white count ([9]; day 5 after transplant) was “significantly higher total white count”, the platelet count ([9]; day 8 after transplant) was 77,000 platelets and the neutrophil count ([9]; day 12 after transplant) was 332 neutrophils. The total white counts ([9]; day 12 after transplant) was “significantly higher total white counts; also recorded: significantly greater total white counts”, the lymphocyte count ([9]; day 18 after transplant) was “significantly higher” and the neutrophil count ([9]; day 18 after transplant) was 835 neutrophils. The platelet counts ([9]; day 18 after transplant) was “significantly higher platelet counts”, the total white count ([9]; day 18 after transplant) was “significantly higher total white count” and the “15-PGDH mRNA levels” value ([10]; V503 cells) was “slight increase in 15-PGDH mRNA”. For the same molecule, the “15-PGDH mRNA levels” value ([10]; treated colon cancer cell lines, real-time PCR) was “do not in general alter 15-PGDH mRNA levels”, the “effect on CellTitre-Glo levels” value [11] was “No effect” and the “change from baseline weight” value ([12]; 22 days, P=0.001) was “greater weight at all time points”. The colon ulcer formation ([12]; colonoscopy days 8, 11, 15) was “prevents two-thirds of ulcer formation”, the “reduction of length of ulcerated mucosa versus control” value ([12]; day 15, P=0.045) was 61% and the “body weight and colon length” value ([12]; day 22) was “greater body weight and greater colon lengths”. For the same molecule, the MEICS scores ([12]; days 8, 11 and 15) was “significantly less colitis activity”.
